Measured values as given in patent US11331333B2, “Treatment of aberrant fibroblast proliferation” (Georg August Universitaet Goettingen Stiftung Oeffentlichen …, priority 2019, dated 2022).

How the values were obtained:
[1] = system: EYA1A^tg mice challenged with UUO; test: Unilateral ureteral obstruction (UUO) kidney fibrosis in EYA1A^tg mice; type: in vivo, mouse
Experimental: From 3 days before surgery, C57BL/6 (referred as wildtype) or transgenic mice overexpressing human splice variants EYA1A (rtTACMV;hEYA1A-pTreTight, referred to as EYA1A^tg) and EYA1C (rtTACMV;hEYA1C-pTreTight, referred to as EYA1C^tg) were treated with either vehicle buffer (glucose 5%) or DOX (2 mg/ml, Sigma, St. Louis, USA) within drinking water ad libidum and renewal every 2 days.
Mice were anesthetized with isoflurane inhalation (2-3%), analgesia was performed by subcutaneous injection of 0.1 mg/kg body weight per day Buprenorphine. The ureter was separated from the surrounding tissues and two ligatures were placed about 5 mm apart in upper two-thirds of the left ureter to obtain reliable obstruction. Mice were sacrificed 3, 7 or 10 days after ureteral obstruction for further analyses.
Mice were injected intraperitoneally with Na3VO4 (8 mg/kg i.p. once per day, Sigma, St. Louis, USA) or caffeine (12.5 mg/kg i.p. once per day, Sigma, St. Louis, USA) starting one day prior of surgery, control mice received equivalent volume of PBS or DMSO.
Mice were injected intraperitoneally with SCR7 (20 mg/kg i.p. every alternate day, Sigma, St. Louis, USA) starting one day prior of surgery, control mice received equivalent volume of DMSO.
The inventors obtained 25 nucleotide antisense morpholino sequences (Gene Tools, Philomath, USA). The in vivo morpholinos contain a covalently linked octaguanidine dendrimer as a delivery moiety to facilitate entry into cells in vivo. Mice were injected intraperitoneally with 12.5 mg/kg body weight in vivo morpholinos in saline at a final volume of 100 μL every other day starting two days prior of surgery. A control in vivo
Lentiviral pLenti-Sce1 was produced in 293T virus packaging cells after transfection using morpholino that targets a human β-globin intron mutation was used as standard control. In vivo morpholino sequences are those of SEQ ID NOs: 9 (EYA1A-VMO), 10 (53Bp1-VMO) and 16 (control).
Formalin-fixed, paraffin-embedded kidneys and hearts from mice, and HOPE-fixed, paraffin-embedded human specimens were sectioned at 3 μm, Masson's Trichrome Stain (MTS) was performed at the University Medicine Göttingen. For morphometric analysis of interstitial fibrosis in mice and human biopsies, we assessed the fibrotic area using cellSens (Olympus, Tokyo, Japan) software. Ten visual fields were selected randomly for each MTS stained section at 200× magnification and the relative interstitial fibrotic area was evaluated by using a 10 mm^2 graticule.
Formalin-fixed, paraffin-embedded kidney sections from mice as well as from HOPE-fixed, paraffin-embedded human specimens were deparaffinized in xylene and rehydrated in ethanol containing distilled water. For immunofluorescent staining, EYA1 isoform antisera or primary antibodies against αSMA (A5228, Sigma, St. Louis, USA), Collagen-1 (ab34710, Abcam Biochemicals, Cambridge, UK), γH2A.X^pS139 (ab2893, Abcam Biochemicals, Cambridge, UK), γH2A.X^pS139 (05-636, Merck Millipore, Billerica, UK), γH2A.X^pY142 (ab94602, Abcam Biochemicals, Cambridge, UK), p-Chk1^pS317 (12302P, Cell Signaling, Danvers, USA), p-Chk2^pT68 (2197S, Cell Signaling, Danvers, USA), Rpa1 (2267S, Cell Signaling, Danvers, USA), Rad51 (sc-8349, Santa Cruz Biotechnology, Dallas, USA), 53Bp1 (sc-22760, Santa Cruz Biotechnology, Dallas, USA), Xrcc4 (sc-8285, Santa Cruz Biotechnology, Dallas, USA) and GFP (MA5-15256, Thermo Fisher Scientific, Waltham, USA) were used, secondary antibodies were labeled with Alexa Fluor 488, 594 or 647 (Life Technologies, Carlsbad, USA). Renal basement membranes were stained with antibodies against Collagen-4 (1340-30, SouthernBiotech, Birmingham, USA). Nuclear staining was performed using 4′,6-diamidino-2-phenylindole (DAPI, Vector Laboratories, Burlingame, USA). Quantifications were performed per high power field at 400× magnification, representative confocal pictures using an LSM 780 confocal laser scanning microscope (Zeiss, Oberkochen, Germany) are shown.

[2] = biological target: T1, EYA1A (Homo sapiens, UniProt Q99502); test: Screen of NCI Mechanistic Set II for EYA1A phosphatase activity with pNPP substrate; type: biochemical; conditions: transgenic fibroblasts, compared to control cultures
T1 construct: expressed in transfected cells; host or cells: transgenic fibroblasts
T1 sequence (Q99502 1-559 isoform Q99502-2): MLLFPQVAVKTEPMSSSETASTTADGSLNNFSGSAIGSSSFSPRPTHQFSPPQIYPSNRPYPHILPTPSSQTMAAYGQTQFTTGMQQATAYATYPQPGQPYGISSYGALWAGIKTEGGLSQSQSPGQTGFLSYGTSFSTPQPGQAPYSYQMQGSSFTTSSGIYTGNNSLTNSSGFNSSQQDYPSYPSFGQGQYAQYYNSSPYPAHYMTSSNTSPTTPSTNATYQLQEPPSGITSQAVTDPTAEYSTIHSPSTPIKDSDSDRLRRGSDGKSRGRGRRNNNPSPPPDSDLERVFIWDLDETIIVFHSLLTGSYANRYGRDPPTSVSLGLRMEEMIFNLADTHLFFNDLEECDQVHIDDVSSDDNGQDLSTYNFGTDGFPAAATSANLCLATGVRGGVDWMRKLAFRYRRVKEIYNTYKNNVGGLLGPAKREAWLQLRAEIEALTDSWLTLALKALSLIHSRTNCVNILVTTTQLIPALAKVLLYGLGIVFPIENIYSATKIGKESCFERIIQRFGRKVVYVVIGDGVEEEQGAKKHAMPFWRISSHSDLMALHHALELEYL
Experimental: FIG. 14 illustrates results of a screen for additional compounds for selective modulation of EYA1A phosphatase activity. The EYA1A phosphatase activity was estimated using p-nitrophenyl phosphate (pNPP) substrate. Briefly, phosphatase activity was determined in transgenic fibroblasts and pNP production was determined in comparison to control cultures. Among 736 compounds contained in the NCI mechanistic set (NCI Mechanistic Set II), 228 inhibitors of EYA1A phosphatase activity were identified.
With regard to modulators of the phosphotyrosine phosphatase activity of EYA1, the inventors screened a small molecule library, namely the NCI “Mechanistic Set II library”, obtained from the open chemical repository of the Developmental Therapeutics Program (DTP) of the National Cancer Institute, illustrated by FIG. 14.
p-Nitrophenyl Phosphate (PNPP) is a non-proteinaceous, non-specific substrate used in the art to assay protein, alkaline and acid phosphatases. The PNPP phosphatase activity is measured using a continuous or single-point spectrophotometric assay based on the ability of phosphatases to catalyze the hydrolysis of PNPP to p-nitrophenol, a chromogenic product with absorbance at 405 nm. Any available protocol can be followed to determine phosphatase activity using pNPP.

[3] = in vivo morpholino 12.5 mg/kg i.p. every other day, EYA1A^tg mice, UUO, 10 days
[4] = SCR7 20 mg/kg i.p. every alternate day, EYA1A overexpressing mice, 10 days after ureteral obstruction

Compound | EYA1A phosphatase activity [2] | other results
53Bp1-VMO: in vivo morpholino, SEQ ID NO: 10, with covalently linked octaguanidine dendrimer, blocking 53Bp1 translation (TCCATCTGCTCCCCTGGCATCC; all phosphorodiamidate morpholino (PMO); octaguanidine dendrimer covalently linked, position not given here, further chemistry not fully specified) |  | presence of Rpa1 (indicative of HR) ([1]; in vivo morpholino 12.5 mg/kg i.p. every other day, EYA1A-overexpressing mice, UUO): increased presence of Rpa1; 53Bp1 within chronically injured kidneys ([1]; in vivo morpholino 12.5 mg/kg i.p. every other day, EYA1A^tg mice, UUO): Depletion of 53Bp1; fibroblast accumulation [1, 3]: attenuated; renal fibrosis [1, 3]: attenuated
Cc1c2ccncc2cc2c1[nH]c1ccccc12 [NSC 87206, 5-Methyl-6H-pyrido(4,3-b)carbazole] | Strong inhibitors | 
COc1cc2cc3c4cc(OC)c(OC)cc4cc[n+]3c(C)c2cc1OC.O=C([O-])CS(=O)(=O)O [NSC No. 154890, Dibenzo(a,g)quinolizinium, 2,3,10,11-tetramethoxy-8-methyl-sulfoacetate] | Strong inhibitors | 
N#CC(=C1C=CC(=NO)C=C1)c1ccc(Cl)cc1 [NSC No. 405158, alpha-(p-chlorophenyl)-4-oxo-2,5-cyclohexadiene-δ1,α-acetonitrile oxime] | Strong inducers | 
O=c1ccc(-c2ccccc2)nn1-c1nc2ccccc2s1 [NSC No. 629659, 2-(2-benzothiazolyl)-6-phenyl-3(2H)-pyridazinone] | Strong inducers | 
O=C1C(c2cnc3ccccc3n2)=C(O)c2ccccc21 [NSC No. 634224, 3-hydroxy-2-(2-quinoxalinyl)-1-indenone] | Strong inducers | 
O=C1C=C(Nc2ccccc2C(=O)CC(=O)C(=O)Nc2ccc(Cl)cc2)c2ccccc2C1=O [NSC No. 641253] | Strong inhibitors | 
CN(C)c1cccc(/C=C(\C#N)c2ccccc2)c1 [NSC No. 667251, (Z)-3-[3-(dimethylamino)phenyl]-2-phenylprop-2-enenitrile] | Strong inducers | 
O=c1[nH]c(=S)[nH]c(N=Cc2ccccc2)c1N=Cc1ccccc1 [SCR7] |  | fibroblast accumulation [1, 4]: significantly reduced; fibrosis [1, 4]: significantly reduced
EYA1A-VMO: in vivo morpholino, SEQ ID NO: 9, with covalently linked octaguanidine dendrimer, specifically inhibiting EYA1A translation (CTGCAACTTGAGGAAACAGCAACAT; all phosphorodiamidate morpholino (PMO); octaguanidine dendrimer covalently linked, position not given here, further chemistry not fully specified) |  | pro-fibrotic effects ([1]; in vivo morpholino 12.5 mg/kg i.p. every other day, EYA1A overexpressing mice, 10 days after ureteral obstruction): reversed pro-fibrotic effects
Hexapotassium hexatriaconta-p-oxooctadecaoxobis [μ9-[phosphato(3-)-κO:κO:κO:κO′:κO′:κO″:κO″:κO′″:κO′″]]octadeca-molybdate(6-) [NSC No. 622124] | Strong inhibitors | 
[Mo12O36(PO4)] disodium salt [NSC No. 622116] | Strong inhibitors | 
